Structures can show the parent of a compound that is named as a salt.
Test system: A2780 cells
Assay: In vitro cell proliferation assay (WST-1 assay)
Assay type: cell-based
Conditions: Homo sapiens, total incubation time 72 h, WST-1 readout
Method: A2780 cells were seeded in 96-well plates at 3×10^3 cells/well in 100 μL of culture medium, 8 wells were left empty for media only controls.
After 24 h the compound titrations were performed, in a separate dilution plate, by serially diluting the compounds of general formula (I) in culture medium. A 100 μL of each dilution was added to the plated cells, this was done in triplicate, and controls (e.g. DMSO and blanks) were included. The plates were incubated for 24 h at 37° C. in a CO2 incubator. The compound titrations were repeated in a separate dilution plate after 24 h. The media plus compound from the assay plates were then aspirated. A 100 μL of media was then added to all wells, followed by 100 μL of each compound dilution. The plates were incubated for a further 48 h at 37° C. in a CO2 incubator (total incubation time 72 h). The number of viable cells was then assessed using Cell Proliferation Reagent WST-1. 10 μL of WST-1 reagent added to each well and incubated for one to four hours at 37° C. in CO2 incubator. The absorbance was measured (450 nm/690 nm).
The activity of compounds of general formula (I) in reducing the number of viable cells was calculated as:
% activity=[(S^c−B)/(S^o−B)]×100
S^c denotes signal measured in the presence of test compound, S^o denotes signal detected in the absence of compound, and B denotes background signal, measured in blank wells containing medium only. Analyse data using GraphPad Prism.

| SMILES | IC50 [nM] |
| --- | --- |
| N#CN=C(NCCCCCCOc1ccc(Cl)cc1)Nc1ccncc1 [CHS828, 1-(6-(4-chlorophenoxy)hexyl)-2-cyano-3-(pyridine-4-yl)guanidine, reference compound] | 0.52 |
| N#C/N=C(\NCCCCCCCCN(CCCN1CCOCC1)C1CCCCC1)Nc1ccncc1 [Compound 1001] | 0.49 |
| N#C/N=C(\NCCCCCCCN(CCCN1CCOCC1)C1CCCCC1)Nc1ccncc1 [Compound 1002, 2-cyano-1-(7-(cyclohexyl(3-morpholinopropyl)amino)heptyl)-3-(pyridin-4-yl)guanidine] | 2.03 |
| N#C/N=C(\NCCCCCCCN(CCCN1CCOCC1)S(=O)(=O)C1CCCCC1)Nc1ccncc1 [Compound 1010, N-(7-(2-cyano-3-(pyridin-4-yl)guanidino)heptyl)-N-(3-morpholinopropyl)cyclohexanesulfonamide] | 0.002 |
| N#C/N=C(\NCCCCCCCN(CCCN1CCOCC1)S(=O)(=O)C1CCCC1)Nc1ccncc1 [Compound 1011, N-(7-(2-cyano-3-(pyridin-4-yl)guanidino)heptyl)-N-(3-morpholinopropyl)cyclopentanesulfonamide] | 0.003 |
| O=C(NCCCCCCCCN(CCCN1CCOCC1)S(=O)(=O)C1CCCCC1)NCc1cccnc1 [Compound 1013, N-(3-morpholinopropyl)-N-(8-(3-(pyridin-3-ylmethyl)ureido)octyl)cyclohexanesulfonamide] | 0.025 |
| O=c1c(NCCCCCCCN(CCCN2CCOCC2)S(=O)(=O)C2CCCC2)c(Nc2ccncc2)c1=O [Compound 1019, N-(7-(3,4-dioxo-2-(pyridin-4-ylamino)cyclobut-1-enylamino)heptyl)-N-(3-morpholinopropyl)cyclopentanesulfonamide] | 0.44 |
| CS(=O)(=O)N(CCCCCCCCN/C(=N\C#N)Nc1ccncc1)OCc1ccccc1 [Compound 1020] | 0.018 |
| CS(=O)(=O)N(CCCCCCCCNC(=O)NCc1cccnc1)OCc1ccccc1 [Compound 1022] | 0.8 |
| CC(C)S(=O)(=O)N(CCCCCCCCN/C(=N\C#N)Nc1ccncc1)OCc1ccccc1 [Compound 1024] | 0.047 |
| CC(C)S(=O)(=O)N(CCCCCCCCNC(=O)Nc1ccncc1)OCc1ccccc1 [Compound 1028, N-(Benzyloxy)-N-(8-(3-pyridin-4-ylureido)octyl)propane-2-sulfonamide] | 0.37 |
| CS(=O)(=O)N(CCCCCCCCNC(=O)/C=C/c1cccnc1)CCCN1CCOCC1 [Compound 1033, N-(8-(N-(3-morpholinopropyl)methylsulfonamido)octyl)-3-(pyridin-3-yl)acrylamide] | 1.17 |
| O=C(NCCCCCCCCN(CCCN1CCOCC1)S(=O)(=O)c1ccccc1)NCc1cccnc1 [Compound 1037] | 0.002 |
| N#C/N=C(\NCCCCCCCN(OC1CCCCO1)S(=O)(=O)Cc1ccccc1)Nc1ccncc1 (stereo not drawn) [Compound 1055] | 0.025 |
| O=c1c(NCCCCCCCN(OC2CCCCO2)S(=O)(=O)Cc2ccccc2)c(Nc2ccncc2)c1=O (stereo not drawn) [Compound 1056, N-(7-(3,4-Dioxo-2-(pyridin-4-ylamino)cyclobut-1-enylamino)heptyl)-1-Phenyl-N-(tetrahydro-2H-pyran-2-yloxy)methanesulfonamide] | 0.35 |
| O=C(NCCCCCCCN(OC1CCCCO1)S(=O)(=O)Cc1ccccc1)NCc1cccnc1 (stereo not drawn) [Compound 1057, 1-Phenyl-N-(7-(3-(pyridin-3-ylmethyl)ureido)heptyl)-N-(tetrahydro-2H-pyran-2-yloxy)methanesulfonamide] | 0.37 |
| CCS(=O)(=O)N(CCCCCCCNC(=O)Nc1ccncc1)OCC1CCCCC1 [Compound 1064, N-(cyclohexylmethoxy)-N-(7-(3-(pyridin-4-yl)ureido)heptyl)ethanesulfonamide] | 0.44 |
| N#C/N=C(\NCCCCCCCCN(CCCN1CCOCC1)C(=O)c1ccccc1)Nc1ccncc1 [Compound 1071, N-(8-(2-cyano-3-(pyridin-4-yl)guanidino)octyl)-N-(3-morpholinopropyl)benzamide] | 0.049 |
| O=C(c1ccccc1)N(CCCCCCCCNc1c(Nc2ccncc2)c(=O)c1=O)CCCN1CCOCC1 [Compound 1072, N-(8-(3,4-dioxo-2-(pyridin-4-ylamino)cyclobut-1-enylamino)octyl)-N-(3-morpholinopropyl)benzamide] | 0.17 |
| O=C(c1ccccc1)N(CCCCCCCCNC(=S)Nc1ccncc1)CCCN1CCOCC1 [Compound 1075, N-(3-morpholinopropyl)-N-(8-(3-(pyridin-4-yl)thioureido)octyl)benzamide] | 0.39 |
| N#C/N=C(\NCCCCCCCCN(CCCN1CCOCC1)C(=O)c1ccccc1)Nc1cccnc1 [Compound 1076, N-(8-(2-cyano-3-(pyridin-3-yl)guanidino)octyl)-N-(3-morpholinopropyl)benzamide] | 0.075 |
| CCON(CCCCCCCCN/C(=N\C#N)Nc1ccncc1)Cc1ccccc1 [Compound 1085, 1-(8-(benzyl(ethoxy)amino)octyl)-2-cyano-3-(pyridin-4-yl)guanidine] | 0.062 |
| CCN(CCCCCCCCN/C(=N\C#N)Nc1ccncc1)OCCN1CCOCC1 [Compound 1086, 2-Cyano-1-(8-(ethyl(2-morpholinoethoxy)amino)octyl)-3-(pyridin-4-yl)guanidine oxalate] | 0.024 |
| CP(C)(=O)N(CCCCCCCCN/C(=N\C#N)Nc1ccncc1)CCCN1CCOCC1 [Compound 1088, 2-Cyano-1-(8-((dimethylphosphoryl)(3-morpholinopropyl)amino)octyl)-3-(pyridin-4-yl)guanidine] | 5.65 |
| N#C/N=C(\NCCCCCCCCN(CCCN1CCOCC1)C(=O)NC1CCCCC1)Nc1ccncc1 [Compound 1093, 1-(8-(2-cyano-3-(pyridin-4-yl)guanidino)octyl)-3-cyclohexyl-1-(morpholinopropyl)urea] | 0.063 |
| N#C/N=C(\NCCCCCCCCN(CCCN1CCOCC1)C(=S)Nc1ccccc1)Nc1ccncc1 [Compound 1094, 1-(8-(2-cyano-3-(pyridin-4-yl)guanidino)octyl)-1-(3-morpholinopropyl)-3-Phenylthiourea] | 0.036 |

More lines, in order of falling IC50, values ahead:

| IC50 [nM] | SMILES |
| --- | --- |
| 11.2 | N#C/N=C(\NCCCCCCN(CCCN1CCOCC1)C1CCCCC1)Nc1ccncc1 [Compound 1003, 2-cyano-1-(6-(cyclohexyl(3-morpholinopropyl)amino)hexyl)-3-(pyridin-4-yl)guanidine] |
| 0.6 | O=C(/C=C/c1cccnc1)NCCCCCCCCN(CCCN1CCOCC1)C(=O)c1ccccc1 [Compound 1074, (E)-N-(3-morpholinopropyl)-N-(8-(3-(pyridin-3-yl)acrylamido)octyl)benzamide] |
| 0.55 | CCN(CCCCCCCCNC(=O)NCc1cccnc1)OCc1ccccc1 [Compound 1081, 1-(8-(benzyloxy(ethyl)amino)octyl)-3-(pyridin-3-ylmethyl)urea oxalate] |
| 0.44 | O=c1c(NCCCCCCCCN(CCCN2CCOCC2)S(=O)(=O)C2CCCC2)c(Nc2ccncc2)c1=O [Compound 1016, N-(8-(3,4-dioxo-2-(pyridin-4-ylamino)cyclobut-1-enylamino)octyl)-N-(3-morpholinopropyl)cyclopentanesulfonamide] |
| 0.39 | O=C(/C=C/c1cccnc1)NCCCCCCCN(OC1CCCCO1)S(=O)(=O)Cc1ccccc1 (stereo not drawn) [Compound 1058, (E)-N-(7-(1-phenyl-N-(tetrahydro-2H-pyran-2-yloxy)methylsulfonamido)heptyl)-3-(pyridin-3-yl)acrylamide] |
| 0.38 | O=C(NCCCCCCN(CCCN1CCOCC1)S(=O)(=O)C1CCCC1)NCc1cccnc1 [Compound 1046] |
| 0.35 | CCS(=O)(=O)N(CCCCCCCNc1c(Nc2ccncc2)c(=O)c1=O)OCC1CCCCC1 [Compound 1061, N-(cyclohexylmethoxy)-N-(7-(3,4-dioxo-2-(pyridin-4-ylamino)cyclobut-1-enylamino)heptyl)ethanesulfonamide] |
| 0.31 | O=C(NCCCCCCCCN(CCCN1CCOCC1)C(=O)c1ccccc1)NCc1cccnc1 [Compound 1073, N-(3-morpholinopropyl)-N-(8-(3-(Pyridin-3-ylmethyl)ureido)octyl)benzamide] |
| 0.1 | O=C(NCCCCCCCN(CCCN1CCOCC1)S(=O)(=O)C1CCCC1)NCc1cccnc1 [Compound 1015, N-(3-morpholinopropyl)-N-(7-(3-(pyridin-3-ylmethyl)ureido)heptyl) cyclopentanesulfonamide] |
| 0.09 | O=C(NCCCCCCCCN(CCCN1CCOCC1)S(=O)(=O)C1CCCC1)NCc1cccnc1 [Compound 1012, N-(3-morpholinopropyl)-N-(8-(3-(pyridin-3-ylmethyl)ureido)octyl)cyclopentanesulfonamide] |
| 0.07 | N#C/N=C(\NCCCCCCCN(CCF)S(=O)(=O)C1CCCCC1)Nc1ccncc1 [Compound 1098, N-(7-(2-cyano-3-(pyridin-4-yl)guanidino)heptyl)-N-(2-fluoroethyl)cyclohexansylfonamide] |
| 0.049 | CCS(=O)(=O)N(CCCCCCCN/C(=N\C#N)Nc1ccncc1)OCC1CCCCC1 [Compound 1060, N-(7-(2-cyano-3-(pyridin-4-yl)guanidino)heptyl)-N-(cyclohexylmethoxy)ethanesulfonamide] |
| 0.042 | N#C/N=C(\NCCCCCCCCN(CCCN1CCOCC1)S(=O)(=O)c1ccccc1)Nc1ccncc1 [Compound 1035, N-(8-(2-cyano-3-(pyridin-4-yl)guanidino)octyl)-N-(3-morpholinopropyl)benzenesulfonamide] |

Reference: patent publication US20120264755A1, “PYRIDINYL DERIVATIVES AS INHIBITORS OF ENZYME NICOTINAMIDE PHOSPHORIBOSYLTRANSFERASE” (TopoTarget, priority 2009, published 2012)
